Values after ≈ are worked out from the molar mass of the structure shown.
Experiments:
[1] = test system: A-549; assay: Bioassay for apoptosis (apoptotic EC50); assay type: cell-based, human; details: Homo sapiens, A549, unit inferred
How it was run: (§1)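 Overnight-adhered cells were treated for 1–3 days with compounds at 0.01 to 20 μg/mL. Percent apoptosis was scored microscopically from DAPI-stained chromatin condensation/fragmentation and/or TUNEL detection of DNA 3′-OH ends.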

[2] = test system: C-170; assay: Bioassay for apoptosis (apoptotic EC50); assay type: cell-based, human; details: Homo sapiens, C170, C-170; unit inferred
How it was run: (§2)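 Apoptosis was quantified microscopically after 1, 2 or 3 days of exposure to test compounds (0.01–20 μg/mL). Cells showing condensed or fragmented nuclear chromatin on DAPI staining, or fragmented DNA by TUNEL, counted as apoptotic.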

[3] = test system: DLD-1; assay: Bioassay for apoptosis (apoptotic EC50); assay type: cell-based, human; details: Homo sapiens, unit inferred
How it was run: as §1

[4] = test system: DU-145; assay: Bioassay for apoptosis (apoptotic EC50); assay type: cell-based, human; details: Homo sapiens, unit inferred
How it was run: as §1

[5] = test system: HL-60; assay: Bioassay for apoptosis (apoptotic EC50); assay type: cell-based, human; details: HL-60; unit not given; in µg/mL
How it was run: as §2

[6] = test system: HT-29; assay: Bioassay for apoptosis (apoptotic EC50); assay type: cell-based, human; details: Homo sapiens, unit inferred
How it was run: as §1

[7] = test system: Jurkat; assay: Bioassay for apoptosis (apoptotic EC50); assay type: cell-based, human; details: Homo sapiens, unit inferred
How it was run: as §1

[8] = test system: LnCaP; assay: Bioassay for apoptosis (apoptotic EC50); assay type: cell-based, human; details: Homo sapiens, unit inferred
How it was run: as §2

[9] = test system: MCF-7; assay: Bioassay for apoptosis (apoptotic EC50); assay type: cell-based, human; details: MCF-7; unit not given; in µg/mL
How it was run: as §2

[10] = test system: MDA-MB-231; assay: Bioassay for apoptosis (apoptotic EC50); assay type: cell-based, human; details: MDA-MB-231; unit not given; in µg/mL
How it was run: as §2

[11] = test system: MDA-MB-435; assay: Bioassay for apoptosis (apoptotic EC50); assay type: cell-based, human; details: MDA-MB-435; unit not given; in µg/mL
How it was run: as §2

[12] = test system: ME-180; assay: Bioassay for apoptosis (apoptotic EC50); assay type: cell-based, human; details: ME-180; unit not given; in µg/mL
How it was run: as §2

[13] = test system: PC-3; assay: Bioassay for apoptosis (apoptotic EC50); assay type: cell-based, human; details: PC-3; unit not given; in µg/mL
How it was run: as §2

[14] = test system: RL-95-2; assay: Bioassay for apoptosis (apoptotic EC50); assay type: cell-based, human; details: Homo sapiens, RL95-2, RL-95-2; unit inferred
How it was run: as §2

[15] = test system: HMEC; assay: Bioassay for apoptosis (apoptotic EC50); assay type: cell-based; details: Homo sapiens, unit inferred
How it was run: as §1

[16] = test system: MCF-10A; assay: Bioassay for apoptosis (apoptotic EC50); assay type: cell-based; details: Homo sapiens, unit inferred
How it was run: as §2

[17] = test system: PREC; assay: Bioassay for apoptosis (apoptotic EC50); assay type: cell-based; details: Homo sapiens, unit inferred
How it was run: as §1

[18] = test system: T47D; assay: Bioassay for apoptosis (apoptotic EC50); assay type: cell-based; details: Homo sapiens, unit inferred
How it was run: as §1

[19] = test system: MCF-7 cells; assay: Apoptosis by DAPI staining (Example 8); assay type: cell-based, human; details: Homo sapiens, MCF7, 72 h, 5% serum, DAPI staining at three day treatment
Description: (§3) MDA-MB-435 and MCF-7 cells at 1.5×10^5/well in 12 well plates for apoptosis and 1.5×10^4/well in 96 well plates for DNA synthesis arrest were incubated overnight in culture media and treated with α-tocopherol, α-tocotrinel, compound 1, 6-0-carboxymethyl alpha-tocotrienol (6-0-CM-α-T, 44), and vitamin E succinate (VES) at different concentrations in experimental media (2% serum for MDA-MB-435 cells and 5% serum for MCF-7 cells). DNA synthesis arrest was determined by ^3H-uptake at one day treatment and apoptosis was detected by DAPI staining at three day treatment. EC50 was calculated as the dosage of test compounds that gave 50% growth inhibition.

[20] = test system: MDA-MB-435 cells; assay: Apoptosis by DAPI staining (Example 8); assay type: cell-based, human; details: Homo sapiens, 72 h; MDA-MB-435; 2% serum; DAPI staining at three day treatment
Description: as §3

[21] = test system: human cancer cells from a wide variety of cell lineages; assay: Apoptosis induction in a battery of tumor cells; assay type: cell-based; details: breast, prostate, leukemia/lymphoid, cervical, ovarian, endometrial, colon, lung cell lines
How it was run: as §1

[22] = test system: Fas ligand on the membrane of LNCaP prostate cells; assay: Fas ligand expression on cell membrane; assay type: cell-based
[23] = test system: P21 in MDA-MB-435 human breast cancer cells; assay: P21 expression; assay type: cell-based
Description: The mechanisms of growth inhibition by DNA synthesis arrest, cell cycle arrest and by induction of cellular differentiation have not been characterized as fully as the mechanism of growth inhibition by apoptosis. […] Tumor cells cultured with the compounds disclosed herein are growth inhibited in the G1 cell cycle phase, undergo morphological changes and express milk lipids, an indication that the cell cycle blocked cells have undergone differentiation.

[24] = Description: Prior to conducting the preclinical chemotherapeutic studies, compound 1 is assayed in non-tumor Balb/c female mice in an effort to establish the maximum tolerated dose. Compound 1 is dissolved in 100% ethanol to establish a stock solution (2 grams of compound 1 in 5 mls of 100% ethanol) and diluted in peanut oil (non vitamin E supplemented) to yield 20, 10, and 5 mg/0.1 ml. RRR-α-tocopherol succinate (VES; the succinate moiety is attached to RRR-α-tocopherol via an ester linkage) was solubilized and diluted as described above to yield 20 mg/0.1 ml/gavage, serving as an additional control. A total of 30 Balb/c female mice were placed into 6 groups (5 mice/group) and supplemented by gavage with compound 1 daily for a total of 23 days. Group 1 mice were non treated and served a s control; group 2 mice were the vehicle control group and received 0.1 ml of vehicle (ethanol+peanut oil equivalent to treatment groups)/mouse/day for a total of 23 days, […] of VES daily for a total of 23 days. Treatment groups […] were gavaged daily for 23 days with 5, 10, and 20 mgs of compound 1.

SMILES: Cc1c(C)c2c(c(C)c1OCC(=O)O)CC[C@@](C)(CCC[C@H](C)CCC[C@H](C)CCCC(C)C)O2 [Compound 1, 2,5,7,8-tetramethyl-(2R-(4R,8R,12-trimethyltridecyl)chroman-6-yloxy)acetic acid]
- EC50 [1]: 10 to 20 µg/mL (≈ 20.5 to 40.9 µM)
- EC50 [2]: 10 to 20 µg/mL (≈ 20.5 to 40.9 µM)
- EC50 [3]: 10 to 20 µg/mL (≈ 20.5 to 40.9 µM)
- EC50 [4]: 5 to 10 µg/mL (≈ 10.2 to 20.5 µM)
- apoptotic EC50 [5]: 5-10
- EC50 [6]: 10 to 20 µg/mL (≈ 20.5 to 40.9 µM)
- EC50 [7]: 10 to 20 µg/mL (≈ 20.5 to 40.9 µM)
- EC50 [8]: 5 to 10 µg/mL (≈ 10.2 to 20.5 µM)
- apoptotic EC50 [9]: 5-10
- apoptotic EC50 [10]: 5-10
- apoptotic EC50 [11]: 5-10
- apoptotic EC50 [12]: 1-5
- apoptotic EC50 [13]: 5-10
- EC50 [14]: 10 to 20 µg/mL (≈ 20.5 to 40.9 µM)
- EC50 [15]: > 20 µg/mL
- EC50 [16]: > 20 µg/mL
- EC50 [17]: > 20 µg/mL
- EC50 [18]: > 20 µg/mL
- EC50 [19]: 36 µM
- EC50 [20]: 30 µM
- growth inhibitory (apoptotic inducing) properties specific for human cancer cells [21]: effective
- expression of Fas ligand on the membrane [22]: enhance the expression of Fas ligand
- P21 mRNA and protein [23]: up-regulated
- toxicity upon autopsy ([24]; at completion of the MTD studies): no evidence of toxicity
- weights of the mice versus VES treated, untreated and vehicle treated controls ([24]; mouse, in vivo): no significant difference
